The source of these data is patent US20250313553A1, “ANNULATED 2-AMINO-3-CYANO THIOPHENES AND DERIVATIVES FOR THE TREATMENT OF CANCER” (Boehringer Ingelheim Int'l GmbH Corp., priority 2021, published 2025).

SMILES strings stand for the structures. pIC50: −log10 of the molar value. ≈ marks a conversion by molar mass, not a printed value. Read-outs that look alike come from different tables or passages of the source.

One series deals with KRAS G12D Ba/F3 cells (Homo sapiens, UniProt P01116, G12D, cells depend on it). The series can be described thus: Ba/F3 proliferation assay, KRAS G12D. It is filed as cell-based. As to conditions: 72 h, AlamarBlue, read-out: KRAS G12D Ba/F3 IC50. The method, then:
(§1) To generate KRASG12-dependent Ba/F3 models, Ba/F3 cells are transduced with retroviruses containing vectors that harbor KRASG12 isoforms. Platinum-E cells (Cell Biolabs) are used for retrovirus packaging. Retrovirus is added to Ba/F3 cells. To ensure infection, 4 μg/mL polybrene is added and cells are spinfected. […] Cells with an infection efficiency of 10% to 20% are further cultivated and puromycin selection with 1 μg/mL is initiated. As a control, parental Ba/F3 cells are used to show selection status. Selection is considered successful when parental Ba/F3 cells cultures died. To evaluate the transforming potential of KRASG12 mutations, the growth medium is no longer supplemented with IL-3. Ba/F3 cells harboring the empty vector are used as a control. Approximately ten days before conducting the experiments, puromycin is left out.
(§2) All treatments are performed in technical duplicates. […] AlamarBlue™ (ThermoFisher), a viability stain, is added and fluorescence measured in the PerkinElmer Envision HTS Multilabel Reader. The raw data are imported into and analyzed with the Boehringer Ingelheim proprietary software MegaLab (curve fitting based on the program PRISM, GraphPad Inc.).
Background: The colour change of resazurin is a common sign of viable cells or microbes.

A further series concerns the target T1, KRAS (G12D) and SOS1 (Homo sapiens, UniProt P01116, G12D).
T1 construct: KRAS (G12D) 1-169, N-terminal 6His-tag; 6His (N); purchased Xtal BioStructures, Inc. (KRAS G12D); Viva Biotech Ltd (SOS1)
The series is described as follows: KRAS::SOS1 AlphaScreen binding assay, KRAS G12D. The method, then:
(§3) Low IC50 values in this assay setting are indicative of strong inhibition of protein-protein interaction between SOS1 and KRAS:
(§4) These assays measure the inhibitory effect of compounds on KRAS mutant protein-protein interactions using the Alpha Screen technology by Perkin Elmer.
(§5) For the chosen highest assay concentration of 100 μM, 150 nL of compound solution are transferred from a 10 mM DMSO compound stock solution. A series of eleven fivefold dilutions per compound are transferred to the assay plate, compound dilutions are tested in duplicates. DMSO are added as backfill to a total volume of 150 nL.
(§6) The assays run on a fully automated robotic system in a darkened room below 100 Lux. To 150 nl of compound dilution 10 μl of a mix including KRAS mutant protein, SOS1 (final assay concentrations see above) and GDP nucleotide (Sigma G7127; final assay concentration 10 μM) in assay buffer (1×PBS, 0.1% BSA, 0.05% Tween 20) are added into columns 1-24. After 30 minutes incubation time 5 μl of Alpha Screen bead mix in assay buffer are added into columns 1-23.
(§7) Plates are kept at room temperature in a darkened incubator. After an additional 60 minutes incubation time the signal is measured in a PerkinElmer Envision HTS Multilabel Reader using the AlphaScreen specs from PerkinElmer.
(§8) IC50 values are calculated and analyzed with Boehringer Ingelheim's MEGALAB IC50 application using a 4 parametric logistic model.
A general note: In Alpha technology, singlet oxygen from a donor bead excites a nearby acceptor bead.

For series [1], the system named is ERK phosphorylation in NCI-H358 (KRAS G12C). The series can be described thus: ERK phosphorylation assay (assay 1, NCI-H358). It is filed as cell-based. Particulars: Homo sapiens; NCI-H358, assay 1, 1 h incubation; read-out: IC50 H358 pERK. The method, then: Low IC50 values in this assay setting are indicative of high potency of the compounds according to the invention. […]
The cells are incubated for 1 h at room temperature and then incubated overnight in an incubator at 37° C. and 5% CO2 in a humidified atmosphere. 60 nL compound solution (10 mM DMSO stock solution) is then added using a Labcyte Echo 550 device. […] After 20 min of incubation at room temperature with shaking, 6 μL of each lysate sample is transferred to a 384-well Proxiplate and analyzed for pERK (Thr202/Tyr204) with the AlphaLISA SureFire Ultra pERK1/2 (Thr202/Tyr204) Assay Kit. 3 μL Acceptor Mix and 3 μL Donor Mix are added under subdued light and incubated for 2 h at room temperature in the dark, before the signal is measured on a PerkinElmer Envision HTS Multilabel Reader. The raw data are imported into and analyzed with the Boehringer Ingelheim proprietary software MegaLab (curve fitting based on the program PRISM, GraphPad Inc.).

Series [2] is described as follows: Solubility measurement (DMSO solution precipitation method). In kind it is physicochemical. As to conditions: aqueous buffer, kinetic from dmso stock. The procedure: The DMSO solution is diluted with an aqueous medium (McIlvaine buffer with pH=4.5 or 6.8) to a final concentration of 250 μM. After 24 h of shaking at ambient temperature a potentially formed precipitate is removed by filtration. The concentration of the test compound in the filtrate is determined by LC-UV methods by calibrating the signal to the signal of a reference solution with complete dissolution of the test compound in acetonitrile/water (1:1) with known concentration.

In a further series the target is KRAS G12V Ba/F3 cells (Homo sapiens, UniProt P01116, G12V, cells depend on it). The series is described as follows: Ba/F3 proliferation assay, KRAS G12V. It is filed as cell-based. Particulars: 72 h, AlamarBlue, read-out: KRAS G12V Ba/F3 IC50. The procedure:
as §1, §2

The target in a further series is KRAS G12C Ba/F3 cells (Homo sapiens, UniProt P01116, G12C, cells depend on it). The series is described as follows: Ba/F3 proliferation assay, KRAS G12C. In kind it is cell-based. Particulars: 72 h, AlamarBlue, read-out: KRAS G12C Ba/F3 IC50. The procedure: as §1, §2
Series [3] can be described thus: Metabolic (microsomal) stability assay, HLM. In kind it is in vitro ADME. Particulars: human liver microsomes, 1 μM, predicted clearance as percent of liver blood flow. The procedure:
The metabolic degradation of the test compound is assayed at 37° C. with pooled liver microsomes (mouse (MLM), rat (RLM) or human (HLM)). The final incubation volume of 48 μL per time point contains TRIS buffer (pH 7.5; 0.1 M), magnesium chloride (6.5 mM), microsomal protein (0.5 mg/mL for mouse/rat, 1 mg/mL for human specimens) and the test compound at a final concentration of 1 μM. Following a short preincubation period at 37° C., the reactions are initiated by addition of 12 μL beta-nicotinamide adenine dinucleotide phosphate, reduced form (NADPH, 10 mM) and terminated by transferring an aliquot into solvent after different time points (0, 5, 15, 30, 60 min). Additionally, the NADPH-independent degradation is monitored in incubations without NADPH, terminated at the last time point by addition of acetonitrile. The quenched incubations are pelleted by centrifugation (4,000 rpm, 15 min). An aliquot of the supernatant is assayed by LC-MS/MS to quantify the concentration of parent compound in the individual samples.
In vitro intrinsic clearance (CLint, in vitro) is calculated from the time course of the disappearance of the test drug during the microsomal incubation. Each plot is fitted to the first-order elimination rate constant as C(t)=C0*exp(−ke*t), where C(t) and C0 are the concentration of unchanged test drug at incubation time t and that at preincubation and ke is the disappearance rate constant of the unchanged drug. Subsequently, CLint, in vitro (μL min^−1·amount protein) values are converted to predicted CLint, in vivo (mL min^−1·kg^−1) from incubation parameters according to the equation CLint, in vivo=CLint, in vitro×(incubation volume (ml)/amount protein (mg))×(amount protein (mg)/g liver tissue)×(liver weight/body wt.). For better across species comparison the predicted clearance is expressed as percent of the liver blood flow [% QH](mL min^−1·kg^−1) in the individual species. In general, high stability (corresponding to low % QH) of the compounds across species is desired.

For another series, the target named is T2, KRAS (G12C) and SOS1 (Homo sapiens, UniProt P01116, C118S/C51S/C80L/G12C).
T2 construct: KRAS (G12C) 1-169, N-terminal 6His-tag for purification; 6His (N, cleaved yes)
The series can be described thus: KRAS::SOS1 AlphaScreen binding assay, KRAS G12C. The method, then:
as §3, §4, §5, §6, §7, §8

Another series has as its target T3, KRAS (G12V) and SOS1 (Homo sapiens, UniProt P01116, C118S/G12V).
T3 construct: KRAS (G12V) 1-169, N-terminal 6His-tag for purification; 6His (N, cleaved yes); TEV cleavage site
The series can be described thus: KRAS::SOS1 AlphaScreen binding assay, KRAS G12V. The method, then: as §3, §4, §5, §6, §7, §8

Where [4] appears, read: McIlvaine buffer pH 4.5, 24 h, read-out: solubility pH 4.5.
[5] abbreviates: McIlvaine buffer pH 6.8, 24 h, read-out: solubility pH 6.8.

T2 sequence (P01116 1-169 isoform P01116-2 G12C/C51S/C80L/C118S): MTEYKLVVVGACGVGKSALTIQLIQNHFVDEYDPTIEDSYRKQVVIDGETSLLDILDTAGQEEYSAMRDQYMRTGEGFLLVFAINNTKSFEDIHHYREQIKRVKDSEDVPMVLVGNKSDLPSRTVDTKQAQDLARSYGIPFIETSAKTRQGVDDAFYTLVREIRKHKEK
KRAS G12C Ba/F3 cells, sequence (P01116 whole entry G12C): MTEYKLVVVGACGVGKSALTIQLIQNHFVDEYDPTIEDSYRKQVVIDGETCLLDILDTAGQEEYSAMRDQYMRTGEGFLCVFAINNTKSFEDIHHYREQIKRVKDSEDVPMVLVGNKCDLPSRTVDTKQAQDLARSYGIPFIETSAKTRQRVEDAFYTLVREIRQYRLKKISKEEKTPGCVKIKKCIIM
KRAS G12D Ba/F3 cells, sequence (P01116 whole entry G12D, canonical isoform): as the sequence (P01116 whole entry G12C) above, with C12D counted along it
T1 sequence (P01116 1-169 isoform P01116-2 G12D): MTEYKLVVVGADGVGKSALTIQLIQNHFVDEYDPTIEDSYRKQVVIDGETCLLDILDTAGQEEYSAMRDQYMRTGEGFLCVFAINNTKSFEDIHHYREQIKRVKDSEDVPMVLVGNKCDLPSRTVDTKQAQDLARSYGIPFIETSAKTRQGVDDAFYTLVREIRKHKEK
KRAS G12V Ba/F3 cells, sequence (P01116 whole entry G12V): as the sequence (P01116 whole entry G12C) above, with C12V counted along it
T3 sequence (P01116 1-169 isoform P01116-2 G12V/C118S): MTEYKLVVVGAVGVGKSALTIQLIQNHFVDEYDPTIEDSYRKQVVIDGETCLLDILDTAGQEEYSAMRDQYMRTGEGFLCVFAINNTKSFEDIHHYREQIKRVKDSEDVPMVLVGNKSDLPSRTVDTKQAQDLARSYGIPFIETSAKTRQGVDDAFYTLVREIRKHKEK

As usually defined, the pIC50 is −log10 of the IC50, conventionally taken in molar units. A word on the solubility: it is the concentration that dissolves in the medium under given conditions. `C[C@H]1CN(CC2CC2)CCCN1c1nccc(-c2noc([C@@]3(C)CCCc4sc(N)c(C#N)c43)n2)n1` [Example V-3]: the GI50 at KRAS G12D Ba/F3 cells amounted to 214 nM; on KRAS G12V Ba/F3 cells it was 516 nM; at KRAS G12C Ba/F3 cells it was 409 nM. Moreover, the pIC50 at KRAS (G12D) and SOS1 was 8.52; in [1], 7.62; at KRAS (G12C) and SOS1 it was 8.22; on KRAS (G12V) and SOS1 it was 8.30. The solubility at 24 h in series [2] (setting [4]) is more than 100 µg/mL; in series [2] (setting [5]), 82 µg/mL (≈ 162 µM). Also, the “HLM QH” value in [3] is more than 95%.

As for `C[C@H](Oc1ccnc(-c2cc([C@@]3(C)CCCc4sc(N)c(C#N)c43)on2)n1)[C@@H]1CCCN1C` [Example V-24], the GI50 worked out at 108 nM on KRAS G12D Ba/F3 cells and 105 nM on KRAS G12C Ba/F3 cells. In addition, the pIC50 is 8.70 at KRAS (G12D) and SOS1; 7.72 in [1]; 8.40 at KRAS (G12C) and SOS1. Besides, the solubility at 24 h in series [2] (setting [4]) and in [2] (setting [5]) was more than 110 µg/mL throughout.

As for `C[C@H](Oc1ccnc(-c2cc([C@@]3(C)CCCc4sc(N)c(C#N)c43)no2)n1)[C@@H]1CCCN1C` [Example V-25], the results for the GI50 at KRAS G12D Ba/F3 cells, on KRAS G12V Ba/F3 cells and at KRAS G12C Ba/F3 cells were 961 nM, 6060 nM and 940 nM, respectively. The pIC50 at KRAS (G12D) and SOS1 is 8.05; in [1], 7.00; at KRAS (G12C) and SOS1 it was 7.85; on KRAS (G12V) and SOS1, 7.96. The solubility at 24 h is more than 110 µg/mL in [2] (setting [4]) and more than 100 µg/mL in series [2] (setting [5]).

With `CC(C)N1CCCN(c2nccc(-c3cc([C@@]4(C)CCCc5sc(N)c(C#N)c54)on3)n2)[C@@H](C)C1` [Example V-26], the results for the GI50 on KRAS G12D Ba/F3 cells and at KRAS G12C Ba/F3 cells were 79 nM and 95 nM, respectively. Also, the pIC50 was 8.70 on KRAS (G12D) and SOS1; 8.15 on KRAS (G12C) and SOS1. The values for the solubility at 24 h in series [2] (setting [4]) and in series [2] (setting [5]) were more than 100 µg/mL and 95 µg/mL (≈ 193 µM), respectively.
